Measurements as given in article PMC12688703, “NirA is a Cyanide‐Tolerant Nitrite Reductase Which Protects Pseudomonas aeruginosa From Self‐Poisoning” (Environmental Microbiology Reports, 2025).

Biological target: T1, CysI (Pseudomonas aeruginosa, UniProt Q9I2Q7)
T1 construct: full orf with N-terminal hexahistidine tag (pSKcysI-N), E. coli BL21 (DE3) suf++ with pCDF-cysG; IMAC and SEC
T1 sequence (Q9I2Q7 1-552): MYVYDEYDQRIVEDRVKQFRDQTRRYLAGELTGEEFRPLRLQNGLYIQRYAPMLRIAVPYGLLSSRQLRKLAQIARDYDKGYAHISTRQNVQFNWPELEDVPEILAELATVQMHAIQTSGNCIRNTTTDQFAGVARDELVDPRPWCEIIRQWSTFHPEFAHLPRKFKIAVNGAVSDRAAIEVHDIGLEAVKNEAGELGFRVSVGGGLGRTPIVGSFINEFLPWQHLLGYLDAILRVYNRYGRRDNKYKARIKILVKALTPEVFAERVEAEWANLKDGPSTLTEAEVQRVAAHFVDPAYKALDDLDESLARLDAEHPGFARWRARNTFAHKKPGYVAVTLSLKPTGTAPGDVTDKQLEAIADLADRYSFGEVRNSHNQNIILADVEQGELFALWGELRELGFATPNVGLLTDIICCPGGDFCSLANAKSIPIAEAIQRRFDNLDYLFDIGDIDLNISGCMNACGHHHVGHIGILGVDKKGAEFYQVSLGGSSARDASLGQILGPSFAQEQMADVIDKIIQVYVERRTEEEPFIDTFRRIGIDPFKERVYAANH
Assay: methyl viologen oxidation at […] nm
Assay type: biochemical
Settings: anaerobic; methyl viologen as electron donor

Q: Which “methyl viologen oxidation at 605 nm” value does the source give for `O=S(O)O` [hydrogen sulphite] here?
A: The value was “Potassium nitrite and hydrogen sulphite were used as electron acceptors for NirA and CysI”.
